Source: ChEMBL document CHEMBL3885861, “Open TG-GATES”

Species: Rattus norvegicus
Experiment: Open TG-GATES - Regimen: Daily Repeat
Assay type: toxicity, organism-based, Sprague-Dawley
Parameters: regimen Daily Repeat, gender Male, age 6 weeks
Details: in vivo, po, route gavage; for APTT / Bas / Eos / Fbg / Hb / Ht / Lym / MCH / MCHC / MCV / Mono / Neu / PT / Plat / RBC / Ret / WBC: tissue Blood; for KIDNEY_L / KIDNEY_R / KIDNEY_TOTAL: tissue Kidney; for LIVER: tissue Liver; for A/G / ALP / ALT / AST / BUN / CRE / Ca / Cl / DBIL / GLC / IP / K / LDH / Na / PL / RALB / TBIL / TC / TG / TP / gamma-GTP: tissue Plasma
[1] = 0 mg/kg, 72 h, dose level Control, time 3 day
[2] = 0 mg/kg, […], dose level Control, time 7 day
[3] = 0 mg/kg, […], dose level Control, time 14 day
[4] = 0 mg/kg, […], dose level Control, time 28 day
[5] = 30 mg/kg, 72 h, dose level Low, time 3 day
[6] = 30 mg/kg, […], dose level Low, time 7 day
[7] = 30 mg/kg, […], dose level Low, time 14 day
[8] = 30 mg/kg, […], dose level Low, time 28 day

## Cc1cccc(Nc2ccccc2C(=O)O)c1C [MEFENAMIC ACID]
[1]
  TERMINAL_BW: 233.8 g
  APTT: 19.9 s
  Bas: 0%
  Eos: 0.8%
  Fbg: 223.4 mg/dL
  Hb: 13.4 g/dL
  Ht: 38.3%
  Lym: 76%
  MCH: 21.9 pg
  MCHC: 35.1%
  MCV: 62.4 fL
  Mono: 2.6%
  Neu: 18.2%
  PT: 11.9 s
  Plat: 118.8 x10_4/uL
  RBC: 614 x10_4/ul
  Ret: 5.7%
  WBC: 105.7 x10_2/uL
  KIDNEY_L: 1 g
  KIDNEY_R: 1 g
  KIDNEY_TOTAL: 2 g
  LIVER: 11.2 g
  A/G: 1.6
  ALP: 1029.8 IU/L
  ALT: 35.4 IU/L
  AST: 64.2 IU/L
  BUN: 14.4 mg/dL
  CRE: 0.4 mg/dL
  Ca: 11 mg/dL
  Cl: 103.2 meq/L
  DBIL: 0.088 mg/dL
  GLC: 193.2 mg/dL
  IP: 7.6 mg/dL
  K: 4.2 meq/L
  LDH: 173 IU/L
  Na: 141 meq/L
  PL: 143.6 mg/dL
  RALB: 3.5 g/dL
  TBIL: 0.1 mg/dL
  TC: 70.6 mg/dL
  TG: 87.4 mg/dL
  TP: 5.6 g/dL
  gamma-GTP: 1 IU/L
[2]
  TERMINAL_BW: 261.7 g
  APTT: 18.5 s
  Bas: 0%
  Eos: 0.8%
  Fbg: 219.2 mg/dL
  Hb: 13.8 g/dL
  Ht: 39.1%
  Lym: 81.4%
  MCH: 21.3 pg
  MCHC: 35.5%
  MCV: 60.1 fL
  Mono: 2.8%
  Neu: 13.4%
  PT: 11.7 s
  Plat: 121.6 x10_4/uL
  RBC: 650.6 x10_4/ul
  Ret: 4.7%
  WBC: 105 x10_2/uL
  KIDNEY_L: 1.1 g
  KIDNEY_R: 1.1 g
  KIDNEY_TOTAL: 2.2 g
  LIVER: 11.4 g
  A/G: 1.5
  ALP: 908 IU/L
  ALT: 38.8 IU/L
  AST: 69.4 IU/L
  BUN: 14.8 mg/dL
  CRE: 0.4 mg/dL
  Ca: 10.6 mg/dL
  Cl: 103.4 meq/L
  DBIL: 0.07 mg/dL
  GLC: 229.4 mg/dL
  IP: 6.9 mg/dL
  K: 3.8 meq/L
  LDH: 181 IU/L
  Na: 140.4 meq/L
  PL: 135.4 mg/dL
  RALB: 3.3 g/dL
  TBIL: 0.1 mg/dL
  TC: 71 mg/dL
  TG: 68.2 mg/dL
  TP: 5.6 g/dL
  gamma-GTP: 1 IU/L
[3]
  TERMINAL_BW: 316.1 g
  APTT: 20.6 s
  Bas: 0%
  Eos: 1%
  Fbg: 228.8 mg/dL
  Hb: 14.3 g/dL
  Ht: 40.5%
  Lym: 76.4%
  MCH: 21.4 pg
  MCHC: 35.2%
  MCV: 60.8 fL
  Mono: 2.2%
  Neu: 18.6%
  PT: 12.1 s
  Plat: 108.8 x10_4/uL
  RBC: 667.4 x10_4/ul
  Ret: 4.2%
  WBC: 111.1 x10_2/uL
  KIDNEY_L: 1.2 g
  KIDNEY_R: 1.2 g
  KIDNEY_TOTAL: 2.4 g
  LIVER: 13.7 g
  A/G: 1.5
  ALP: 880 IU/L
  ALT: 31 IU/L
  AST: 58.8 IU/L
  BUN: 16 mg/dL
  CRE: 0.5 mg/dL
  Ca: 10.5 mg/dL
  Cl: 103 meq/L
  DBIL: 0.092 mg/dL
  GLC: 233.6 mg/dL
  IP: 7.1 mg/dL
  K: 3.9 meq/L
  LDH: 154.4 IU/L
  Na: 140.6 meq/L
  PL: 142.8 mg/dL
  RALB: 3.4 g/dL
  TBIL: 0.2 mg/dL
  TC: 73.4 mg/dL
  TG: 101.4 mg/dL
  TP: 5.6 g/dL
  gamma-GTP: 0.8 IU/L
[4]
  TERMINAL_BW: 409.8 g
  APTT: 19.1 s
  Bas: 0%
  Eos: 1%
  Fbg: 249 mg/dL
  Hb: 15.3 g/dL
  Ht: 43.8%
  Lym: 81.4%
  MCH: 20.1 pg
  MCHC: 35%
  MCV: 57.4 fL
  Mono: 2%
  Neu: 14.4%
  PT: 11.8 s
  Plat: 111.8 x10_4/uL
  RBC: 763.4 x10_4/ul
  Ret: 2.7%
  WBC: 91.7 x10_2/uL
  KIDNEY_L: 1.4 g
  KIDNEY_R: 1.4 g
  KIDNEY_TOTAL: 2.9 g
  LIVER: 17.3 g
  A/G: 1.3
  ALP: 665 IU/L
  ALT: 33.4 IU/L
  AST: 56.6 IU/L
  BUN: 18.8 mg/dL
  CRE: 0.5 mg/dL
  Ca: 10.6 mg/dL
  Cl: 103.4 meq/L
  DBIL: 0.1 mg/dL
  GLC: 242.8 mg/dL
  IP: 7 mg/dL
  K: 3.8 meq/L
  LDH: 111.2 IU/L
  Na: 140.6 meq/L
  PL: 151.8 mg/dL
  RALB: 3.6 g/dL
  TBIL: 0.2 mg/dL
  TC: 74.2 mg/dL
  TG: 141.4 mg/dL
  TP: 6.2 g/dL
  gamma-GTP: 1.6 IU/L
[5]
  TERMINAL_BW: 232.8 g
  APTT: 19.8 s
  Bas: 0%
  Eos: 1%
  Fbg: 221.8 mg/dL
  Hb: 13.4 g/dL
  Ht: 38.3%
  Lym: 79.6%
  MCH: 21.4 pg
  MCHC: 35%
  MCV: 61.1 fL
  Mono: 2.4%
  Neu: 15.4%
  PT: 11.9 s
  Plat: 117.6 x10_4/uL
  RBC: 627.4 x10_4/ul
  Ret: 5.6%
  WBC: 94.5 x10_2/uL
  KIDNEY_L: 1 g
  KIDNEY_R: 1 g
  KIDNEY_TOTAL: 2 g
  LIVER: 10.6 g
  A/G: 1.6
  ALP: 1154.4 IU/L
  ALT: 36.2 IU/L
  AST: 66.2 IU/L
  BUN: 14.6 mg/dL
  CRE: 0.4 mg/dL
  Ca: 10.8 mg/dL
  Cl: 102 meq/L
  DBIL: 0.09 mg/dL
  GLC: 190.6 mg/dL
  IP: 7.8 mg/dL
  K: 4.2 meq/L
  LDH: 171.8 IU/L
  Na: 140 meq/L
  PL: 164.6 mg/dL
  RALB: 3.5 g/dL
  TBIL: 0.2 mg/dL
  TC: 91 mg/dL
  TG: 94.4 mg/dL
  TP: 5.6 g/dL
  gamma-GTP: 0.8 IU/L
[6]
  TERMINAL_BW: 268.5 g
  APTT: 19.2 s
  Bas: 0%
  Eos: 1.4%
  Fbg: 237 mg/dL
  Hb: 14 g/dL
  Ht: 39%
  Lym: 80.4%
  MCH: 22.2 pg
  MCHC: 35.8%
  MCV: 61.9 fL
  Mono: 2%
  Neu: 15%
  PT: 11.8 s
  Plat: 125.5 x10_4/uL
  RBC: 629.6 x10_4/ul
  Ret: 5.4%
  WBC: 98.6 x10_2/uL
  KIDNEY_L: 1.1 g
  KIDNEY_R: 1.1 g
  KIDNEY_TOTAL: 2.2 g
  LIVER: 12.3 g
  A/G: 1.6
  ALP: 1054 IU/L
  ALT: 38.2 IU/L
  AST: 69.8 IU/L
  BUN: 15 mg/dL
  CRE: 0.4 mg/dL
  Ca: 10.6 mg/dL
  Cl: 102.8 meq/L
  DBIL: 0.098 mg/dL
  GLC: 222.6 mg/dL
  IP: 7.2 mg/dL
  K: 3.7 meq/L
  LDH: 204.4 IU/L
  Na: 140.2 meq/L
  PL: 152.4 mg/dL
  RALB: 3.5 g/dL
  TBIL: 0.2 mg/dL
  TC: 75.8 mg/dL
  TG: 114.2 mg/dL
  TP: 5.7 g/dL
  gamma-GTP: 0.8 IU/L
[7]
  TERMINAL_BW: 312.8 g
  APTT: 19.6 s
  Bas: 0%
  Eos: 1%
  Fbg: 224.2 mg/dL
  Hb: 14.5 g/dL
  Ht: 40.6%
  Lym: 80%
  MCH: 21.5 pg
  MCHC: 35.7%
  MCV: 60.3 fL
  Mono: 2.4%
  Neu: 15.4%
  PT: 12.1 s
  Plat: 117 x10_4/uL
  RBC: 673.6 x10_4/ul
  Ret: 4%
  WBC: 93.1 x10_2/uL
  KIDNEY_L: 1.2 g
  KIDNEY_R: 1.2 g
  KIDNEY_TOTAL: 2.4 g
  LIVER: 13.7 g
  A/G: 1.4
  ALP: 881.8 IU/L
  ALT: 33.4 IU/L
  AST: 57.8 IU/L
  BUN: 16 mg/dL
  CRE: 0.4 mg/dL
  Ca: 10.6 mg/dL
  Cl: 103.4 meq/L
  DBIL: 0.098 mg/dL
  GLC: 205.2 mg/dL
  IP: 7.1 mg/dL
  K: 3.9 meq/L
  LDH: 152.4 IU/L
  Na: 140.8 meq/L
  PL: 151.4 mg/dL
  RALB: 3.3 g/dL
  TBIL: 0.2 mg/dL
  TC: 74.4 mg/dL
  TG: 125 mg/dL
  TP: 5.7 g/dL
  gamma-GTP: 1 IU/L
[8]
  TERMINAL_BW: 397.4 g
  APTT: 18.7 s
  Bas: 0%
  Eos: 1.2%
  Fbg: 248.6 mg/dL
  Hb: 15.6 g/dL
  Ht: 43.9%
  Lym: 81.8%
  MCH: 20.4 pg
  MCHC: 35.5%
  MCV: 57.5 fL
  Mono: 2.2%
  Neu: 13%
  PT: 12.1 s
  Plat: 107.9 x10_4/uL
  RBC: 764.2 x10_4/ul
  Ret: 2.5%
  WBC: 93.1 x10_2/uL
  KIDNEY_L: 1.4 g
  KIDNEY_R: 1.4 g
  KIDNEY_TOTAL: 2.8 g
  LIVER: 16.1 g
  A/G: 1.4
  ALP: 696 IU/L
  ALT: 32.8 IU/L
  AST: 57.8 IU/L
  BUN: 17.8 mg/dL
  CRE: 0.5 mg/dL
  Ca: 10.5 mg/dL
  Cl: 103.8 meq/L
  DBIL: 0.082 mg/dL
  GLC: 227 mg/dL
  IP: 6.6 mg/dL
  K: 3.5 meq/L
  LDH: 103.4 IU/L
  Na: 141.2 meq/L
  PL: 146.2 mg/dL
  RALB: 3.5 g/dL
  TBIL: 0.1 mg/dL
  TC: 78.2 mg/dL
  TG: 97 mg/dL
  TP: 6.1 g/dL
  gamma-GTP: 1.2 IU/L
